Series [1] concerns Staphylococcus aureus. The experiment in a line: Antimicrobial activity against methicillin-resistant Staphylococcus aureus ATCC BAA-44 assessed as inhibition of biofilm formation after 24 hrs by crystal violet staining-based microscopy. The format is functional, organism-based. The note with it: ATCC BAA-44, 24 h.
The subject of series [2] is Staphylococcus aureus. Kind of series: Antimicrobial activity against methicillin-resistant Staphylococcus aureus ATCC 43300 assessed as inhibition of biofilm formation after 24 hrs by crystal violet staining-based microscopy. The format is functional, organism-based. The conditions noted are these: ATCC 43300, 24 h.
Series [3] concerns Staphylococcus aureus. The experiment in a line: Antimicrobial activity against methicillin-resistant Staphylococcus aureus ATCC 43300 after 16 hrs by broth microdilution method. The class given is functional. The note with it: ATCC 43300, 16 h.
Series [4] deals with Staphylococcus aureus. The experiment in a line: Antimicrobial activity against methicillin-resistant Staphylococcus aureus ATCC BAA-1685 after 16 hrs by broth microdilution method. The format is functional. The conditions noted are these: ATCC BAA-1685, 16 h. In general terms: In broth dilution the organism is exposed to a series of concentrations in liquid medium.
The subject of another series is Acinetobacter baumannii. Kind of series: Antimicrobial activity against multidrug-resistant Acinetobacter baumannii ATCC BAA-1605 after 16 hrs by broth microdilution method. The format is functional. The note with it: ATCC BAA-1605, 16 h.
The next series relates to Pseudomonas aeruginosa. Kind of series: Antimicrobial activity against Pseudomonas aeruginosa PA14 after 16 hrs by broth microdilution method. The class given is functional. The note with it: PA14, 16 h.
Series [5] relates to Staphylococcus aureus. Kind of series: Antimicrobial activity against methicillin-resistant Staphylococcus aureus ATCC BAA-1556 after 16 hrs by broth microdilution method. The format is functional. The conditions noted are these: ATCC BAA-1556, 16 h.
Series [6] deals with Staphylococcus aureus. The experiment in a line: Toxicity in methicillin-resistant Staphylococcus aureus ATCC 43300 assessed as inhibition of planktonic cell growth at IC50 after 2 to 24 hrs by spectrophotometry. The format is organism-based.
Series [7] concerns Staphylococcus aureus. Kind of series: Antibiofilm activity against methicillin-resistant Staphylococcus aureus ATCC 43300 assessed as biofilm dispersal at 20 uM after 24 hrs by crystal violet staining-based microscopy. The class given is functional, organism-based.
Series [8] relates to Staphylococcus aureus. Kind of series: Antimicrobial activity against methicillin-susceptible Staphylococcus aureus ATCC 29213 after 16 hrs by broth microdilution method. The format is functional. The conditions noted are these: ATCC 29213, 16 h.
In series [9] the test system is Staphylococcus aureus. Kind of series: Antimicrobial activity against methicillin-resistant Staphylococcus aureus ATCC 33591 after 16 hrs by broth microdilution method. The class given is functional. The note with it: ATCC 33591, 16 h.
Series [10] deals with Staphylococcus aureus. Kind of series: Antimicrobial activity against methicillin-resistant Staphylococcus aureus ATCC BAA-811 after 16 hrs by broth microdilution method. The conditions noted are these: ATCC BAA-811, 16 h. The format is functional.
Series [11] relates to Staphylococcus aureus. The experiment in a line: Antimicrobial activity against methicillin-resistant Staphylococcus aureus ATCC BAA-44 after 16 hrs by broth microdilution method. The note with it: ATCC BAA-44, 16 h. The class given is functional.
Series [12] relates to Staphylococcus aureus. The experiment in a line: Toxicity in methicillin-resistant Staphylococcus aureus ATCC BAA-44 assessed as inhibition of planktonic cell growth at IC50 after 2 to 24 hrs by spectrophotometry. The class given is organism-based.
For series [13], the system named is Staphylococcus aureus. Kind of series: Antimicrobial activity against methicillin-resistant Staphylococcus aureus ATCC BAA-1753 after 16 hrs by broth microdilution method. The format is functional. The conditions noted are these: ATCC BAA-1753, 16 h.
For series [14], the system named is Staphylococcus aureus. The experiment in a line: Antimicrobial activity against methicillin-resistant Staphylococcus aureus ATCC 700789 after 16 hrs by broth microdilution method. The format is functional. The conditions noted are these: ATCC 700789, 16 h.

Structures are written as SMILES. Calls of active or inactive are those of the source. Bounds are passed on as bounds.

Turning to `CCCCCc1ccc(C(=O)Nc2ccc3c(c2)nc(N)n3CCc2ccc(OC)cc2)cc1.Cl`, the IC50 (in general, the point on the concentration scale where inhibition reaches its midpoint) with Staphylococcus aureus [1] was 10.4 µM; with Staphylococcus aureus [2] it was 6.2 µM. The MIC (usually the smallest concentration in the dilution series that meets the test's criterion for growth inhibition) with Staphylococcus aureus [3] is 8 µg/mL; in the series with Staphylococcus aureus [4], 8 µg/mL; against Acinetobacter baumannii, above 64 µg/mL; in the series on Pseudomonas aeruginosa it was above 64 µg/mL; against Staphylococcus aureus [5] it was 8 µg/mL; with Staphylococcus aureus [8] it was 16 µg/mL. Moreover, the MIC in the series on Staphylococcus aureus [9], against Staphylococcus aureus [10], in the series with Staphylococcus aureus [11], with Staphylococcus aureus [13] and with Staphylococcus aureus [14] was 16 µg/mL throughout. The Activity result with Staphylococcus aureus [6] and in the series on Staphylococcus aureus [12] was “Toxic” in each case. In addition, the outcome in the series on Staphylococcus aureus [7] was inactive.
In the case of `CCCCCc1ccc(C(=O)Nc2ccc3c(c2)nc(N)n3CCc2ccccc2OC)cc1.Cl`, the IC50 in the series on Staphylococcus aureus [1] came to 7.3 µM; with Staphylococcus aureus [2] it was 5.7 µM. Also, the MIC was 16 µg/mL with Staphylococcus aureus [3]; 16 µg/mL against Staphylococcus aureus [4]; above 64 µg/mL against Acinetobacter baumannii; above 64 µg/mL against Pseudomonas aeruginosa; 16 µg/mL against Staphylococcus aureus [5]; 16 µg/mL against Staphylococcus aureus [8]. Moreover, the MIC stood at 16 µg/mL with Staphylococcus aureus [9]; 8 µg/mL in the series on Staphylococcus aureus [10]; 16 µg/mL in the series with Staphylococcus aureus [11]; 16 µg/mL with Staphylococcus aureus [13]; 16 µg/mL against Staphylococcus aureus [14]. Also, the Activity entry in the series with Staphylococcus aureus [6] is reported as “Non-toxic”; in the series with Staphylococcus aureus [12] it was “Toxic”. The outcome in the series on Staphylococcus aureus [7] was inactive.
Turning to `CCCCCc1ccc(C(=O)Nc2ccc3c(c2)nc(N)n3CCCC)cc1.Cl`, the concentration for half-maximal inhibition (IC50) in the series with Staphylococcus aureus [1] came out at 5 µM; with Staphylococcus aureus [2], 4.5 µM. In addition, the MIC in the series on Staphylococcus aureus [3] was 8 µg/mL; in the series on Staphylococcus aureus [4], 8 µg/mL; in the series with Acinetobacter baumannii, above 64 µg/mL; in the series on Pseudomonas aeruginosa it was above 64 µg/mL; against Staphylococcus aureus [5], 8 µg/mL; in the series with Staphylococcus aureus [8], 8 µg/mL. The MIC with Staphylococcus aureus [9], against Staphylococcus aureus [10], against Staphylococcus aureus [11], against Staphylococcus aureus [13] and with Staphylococcus aureus [14] was 8 µg/mL throughout. For the same compound, the Activity result with Staphylococcus aureus [6] and in the series with Staphylococcus aureus [12] was “Non-toxic” each time. Also, the result in the series on Staphylococcus aureus [7] was inactive.
Turning to `CCCCCc1ccc(C(=O)Nc2ccc3c(c2)nc(N)n3CCc2cccc(OC)c2)cc1.Cl`, the IC50 stood at 9.3 µM in the series with Staphylococcus aureus [1] and 6.1 µM in the series with Staphylococcus aureus [2]. The MIC in the series with Staphylococcus aureus [3] is 16 µg/mL; in the series with Staphylococcus aureus [4], 16 µg/mL; in the series with Acinetobacter baumannii it was above 64 µg/mL; in the series on Pseudomonas aeruginosa it was above 64 µg/mL; against Staphylococcus aureus [5], 16 µg/mL; in the series on Staphylococcus aureus [8], 16 µg/mL. Further, the MIC with Staphylococcus aureus [9] is 16 µg/mL; in the series on Staphylococcus aureus [10] it was 16 µg/mL; in the series with Staphylococcus aureus [11], 32 µg/mL; in the series with Staphylococcus aureus [13], 16 µg/mL; with Staphylococcus aureus [14] it was 16 µg/mL. For the same compound, the Activity entry is reported as “Toxic” in the series on Staphylococcus aureus [6] and “Non-toxic” with Staphylococcus aureus [12]. Besides, the outcome in the series with Staphylococcus aureus [7] was inactive.
In the case of `CCCCCc1ccc(C(=O)Nc2ccc3c(c2)nc(N)n3CCc2ccc3ccccc3c2)cc1.Cl`, the results for the IC50 in the series on Staphylococcus aureus [1] and in the series on Staphylococcus aureus [2] were 14.3 µM and 5.7 µM, respectively. The MIC in the series with Staphylococcus aureus [3] was 32 µg/mL; in the series on Staphylococcus aureus [4], 32 µg/mL; against Acinetobacter baumannii, above 64 µg/mL; against Pseudomonas aeruginosa, above 64 µg/mL; with Staphylococcus aureus [5], 32 µg/mL; in the series on Staphylococcus aureus [8], 64 µg/mL. For the same compound, the MIC with Staphylococcus aureus [9] was 32 µg/mL; against Staphylococcus aureus [10], 32 µg/mL; against Staphylococcus aureus [11] it was 32 µg/mL; in the series on Staphylococcus aureus [13], 64 µg/mL; with Staphylococcus aureus [14] it was 32 µg/mL. Also, the Activity entry in the series on Staphylococcus aureus [6] and with Staphylococcus aureus [12] was “Toxic” throughout. In addition, the result in the series on Staphylococcus aureus [7] was inactive.
For the compound `CCCCCc1ccc(C(=O)Nc2ccc3c(c2)nc(N)n3C2CCCC2)cc1.Cl`, the IC50 in the series on Staphylococcus aureus [1] amounted to 4.3 µM; in the series on Staphylococcus aureus [2], 3.6 µM. The minimal inhibitory concentration (MIC) against Staphylococcus aureus [3] is 8 µg/mL; in the series with Staphylococcus aureus [4], 8 µg/mL; against Acinetobacter baumannii, above 64 µg/mL; against Pseudomonas aeruginosa it was above 64 µg/mL; against Staphylococcus aureus [5] it was 8 µg/mL; in the series with Staphylococcus aureus [8] it was 16 µg/mL. In addition, the MIC with Staphylococcus aureus [9] was 8 µg/mL; with Staphylococcus aureus [10], 16 µg/mL; with Staphylococcus aureus [11], 16 µg/mL; against Staphylococcus aureus [13], 8 µg/mL; against Staphylococcus aureus [14] it was 16 µg/mL. In addition, the Activity entry in the series with Staphylococcus aureus [6] and in the series with Staphylococcus aureus [12] was “Non-toxic” throughout. For the same compound, the result in the series with Staphylococcus aureus [7] was inactive.
Regarding `CCCCCc1ccc(C(=O)Nc2ccc3c(c2)nc(N)n3CCCCc2ccccc2)cc1.Cl`, the IC50 in the series on Staphylococcus aureus [1] is 14.3 µM; in the series on Staphylococcus aureus [2], 6.9 µM. Moreover, the MIC in the series on Staphylococcus aureus [3] is 32 µg/mL; against Staphylococcus aureus [4], 32 µg/mL; against Acinetobacter baumannii it was above 64 µg/mL; in the series with Pseudomonas aeruginosa, above 64 µg/mL; in the series on Staphylococcus aureus [5], 16 µg/mL; against Staphylococcus aureus [8], 32 µg/mL. For the same compound, the minimum inhibitory concentration (MIC) with Staphylococcus aureus [9] is 16 µg/mL; against Staphylococcus aureus [10] it was 32 µg/mL; in the series on Staphylococcus aureus [11], 32 µg/mL; against Staphylococcus aureus [13] it was above 64 µg/mL; with Staphylococcus aureus [14], 32 µg/mL. Moreover, the Activity result with Staphylococcus aureus [6] and in the series on Staphylococcus aureus [12] was “Toxic” in each case. In the series with Staphylococcus aureus [7], the outcome was inactive.
On to `CCCCCCCCn1c(N)nc2cc(NC(=O)c3ccc(CCCCC)cc3)ccc21.Cl`, for which the IC50 was 6.8 µM in the series with Staphylococcus aureus [1] and 9.3 µM in the series on Staphylococcus aureus [2]. The MIC against Staphylococcus aureus [3] was 64 µg/mL; in the series on Staphylococcus aureus [4], 64 µg/mL; against Acinetobacter baumannii, above 64 µg/mL; against Pseudomonas aeruginosa it was above 64 µg/mL; against Staphylococcus aureus [5], above 64 µg/mL; in the series on Staphylococcus aureus [8], 64 µg/mL. For the same compound, the MIC against Staphylococcus aureus [9] worked out at 64 µg/mL; with Staphylococcus aureus [10], 32 µg/mL; with Staphylococcus aureus [11] it was 64 µg/mL; in the series with Staphylococcus aureus [13] it was 64 µg/mL; against Staphylococcus aureus [14], 64 µg/mL. The Activity result with Staphylococcus aureus [6] and with Staphylococcus aureus [12] was “Non-toxic” throughout. In addition, the outcome with Staphylococcus aureus [7] was inactive.
Regarding `CCCCCc1ccc(C(=O)Nc2ccc3c(c2)nc(N)n3Cc2ccccc2)cc1.Cl`, the IC50 in the series with Staphylococcus aureus [1] was found to be 6.8 µM; in the series on Staphylococcus aureus [2], 5.2 µM. For the same compound, the MIC in the series on Staphylococcus aureus [3], against Staphylococcus aureus [4], against Acinetobacter baumannii, in the series on Pseudomonas aeruginosa, against Staphylococcus aureus [5] and with Staphylococcus aureus [8] was above 64 µg/mL in each case. The MIC in the series with Staphylococcus aureus [9], in the series with Staphylococcus aureus [10], against Staphylococcus aureus [11], against Staphylococcus aureus [13] and in the series with Staphylococcus aureus [14] was above 64 µg/mL each time. The Activity entry with Staphylococcus aureus [6] and in the series with Staphylococcus aureus [12] was “Non-toxic” in each case. Moreover, the outcome in the series with Staphylococcus aureus [7] was inactive.
Consider `CCCCCc1ccc(C(=O)Nc2ccc3c(c2)nc(N)n3CCCCc2c[nH]c3ccccc23)cc1.Cl`, for which the values for the IC50 in the series on Staphylococcus aureus [1] and in the series on Staphylococcus aureus [2] were 7.9 µM and 5.7 µM, respectively. Moreover, the MIC with Staphylococcus aureus [3] was 32 µg/mL; in the series with Staphylococcus aureus [4] it was 32 µg/mL; with Acinetobacter baumannii, above 64 µg/mL; with Pseudomonas aeruginosa, above 64 µg/mL; against Staphylococcus aureus [5], 32 µg/mL; against Staphylococcus aureus [8], 64 µg/mL. Moreover, the MIC against Staphylococcus aureus [9] turned out to be 32 µg/mL; against Staphylococcus aureus [10], 64 µg/mL; in the series with Staphylococcus aureus [11], 32 µg/mL; with Staphylococcus aureus [13] it was 64 µg/mL; against Staphylococcus aureus [14] it was 32 µg/mL. Besides, the Activity entry in the series with Staphylococcus aureus [6] and in the series with Staphylococcus aureus [12] was “Toxic” in each case. Besides, the outcome in the series with Staphylococcus aureus [7] was inactive.

Source of the values: ChEMBL document CHEMBL3217587, “The discovery of N-1 substituted 2-aminobenzimidazoles as zinc-dependent S. aureus biofilm inhibitors” (Medchemcomm, 2012).
